Reference: patent EP0002259B1, “Hydantoin derivatives and salts thereof, their synthesis and pharmaceutical formulations” (THE WELLCOME FOUNDATION LIMITED, priority 1977, dated 1979)

What was measured:
[1] = Solubility in volatile solvent (tablet formulation); type: physicochemical; conditions: methanol, ethanol
Procedure: The compound was dissolved in a volatile solvent. […] The mixture was then pressed to tablets, each 226 mg in weight.

[2] = system: platelets in fresh human platelet rich plasma (PRP); assay: Inhibition of platelet aggregation (ADP-stimulated, Born aggregometer), activity compared to PGE1; type: cell-based; conditions: 37°C for 1 minute, ADP 5 µm
Procedure: Aggregation of platelets in 1 ml of fresh human platelet rich plasma (PRP) was monitored in a Born aggregometer.
The compound to be tested was added to the PRP at the desired concentration, and the resulting mixture incubated at 37°C for 1 minute after which platelet aggregation was stimulated by the addition of adenosine diphosphate (ADP) to a concentration of 5 µm.
The antiaggregatory effect of the compound was assessed by measuring the percentage inhibition of platelet aggregation in the presence of the compound as compared with when it was absent. The percentage inhibitions at various concentrations of hydantoin and prostaglandin E, (PGE,) were established and compared to show activity compared to PGE,.

[3] = system: Male normotensive rats Wistar (Charles River) strain; assay: Cardiovascular effects in anaesthetised rats (hypotensive effect compared with prostacyclin); type: in vivo; conditions: intravenous injection in physiological saline
Procedure: Male normotensive rats Wistar (Charles River) strain, ([…]) were anesthetised (chloroform) prior to cannulation to left femoral vein and anaestesia maintained by intravenous chloralose (60 mg/kg). Pulsatile blood pressure was recorded from the left femoral artery with an electronic transducer (Bell and Howell Type 4-327 L221) and integrated heart rate was measured with a cardiotachometer triggered from the arterial pressure waves.
The test compound (less polar diastereomer of the compounds of Example 2) was administered as a solution in physiological saline by intravenous injection via the femoral cannula. The responses recorded were allowed to return to the preinjection levels between successive administrations.

SMILES: O=C(O)CCCCCCC1C(=O)NC(=S)N1CCC(O)C1CCCCC1 (single isomer, unassigned) [Example 3 less, 5-(6-carboxyhexyl)-l-(3-cyclohexyl-3-hydroxypropyl)-2-thiohydantoin]
- solubility [1]: soluble in methanol and in ethanol

SMILES: CCCCCC(O)CCN1C(=S)NC(=O)C1CCCCCCC(=O)O (centres unmarked) [Example 1 more, 5-(6-carboxyhexyl)-1-(3-hydroxyoctyl)-2-thiohydantoin]
- Inhibition of Platelet Aggregation (X PGE1) ([2]; activity relative to PGE1): <0,01 X PGE1

SMILES: CC(C)(C)CC(O)CCN1C(=S)NC(=O)C1CCCCCCC(=O)O (centres unmarked) [Example 2 less, 5-(6-carboxyhexyl)-1-(5,5-dimethyl-3-hydroxyhexyl)-2-thiohydantoin]
- Inhibition of Platelet Aggregation (X PGE1) ([2]; activity relative to PGE1, listed as 2 less): 0,04 X PGE1
- hypotensive effect, per cent of the hypotensive effect of prostacyclin [3]: less than one

SMILES: CC(C)(C)CC(O)CCN1C(=S)NC(=O)C1CCCCCCC(=O)O (centres unmarked) [Example 2 more, 5-(6-carboxyhexyl)-1-(5,5-dimethyl-3-hydroxyhexyl)-2-thiohydantoin]
- Inhibition of Platelet Aggregation (X PGE1) ([2]; activity relative to PGE1, listed as 2 more): 0,01 X PGE1

SMILES: O=C(O)CCCCCCC1C(=O)NC(=S)N1CCC(O)C1CCCC1 (centres unmarked) [Example 5 less, 5-(6-carboxyhexyl)-1-(3-cyclopentyl-3-hydroxypropyl)-2-thiohydantoin]
- Inhibition of Platelet Aggregation (X PGE1) ([2]; activity relative to PGE1): 0,03 X PGE1

SMILES: O=C(O)CCC/C=C\CC1C(=O)NC(=S)N1CCC(O)C1CCCCC1 (centres unmarked) [Example 6 less, 5-(6-carboxyhex-2Zenyl)-1-(3-cyclohexyl-3-hydroxypropyl)-2-thiohydantoin]
- Inhibition of Platelet Aggregation (X PGE1) ([2]; activity relative to PGE1, listed as 6 less): 0,04 X PGE1

SMILES: O=C(O)CCC/C=C\CC1C(=O)NC(=S)N1CCC(O)C1CCCCC1 (centres unmarked) [Example 6 more, 5-(6-carboxyhex-2Zenyl)-1-(3-cyclohexyl-3-hydroxypropyl)-2-thiohydantoin]
- Inhibition of Platelet Aggregation (X PGE1) ([2]; activity relative to PGE1, listed as 6 more): 0,02 X PGE1
